From patent publication US20180044343A1, “BICYCLIC IMIDAZOLO DERIVATIVE” (Sumitomo Dainippon Pharma Co., Ltd., priority 2015, published 2018)

Molecular target: PDE1B (Homo sapiens, UniProt Q01064)
Test: In vitro HTRF PDE1 inhibition assay (PDE1B)
Type: biochemical
Details: in vitro PDE1B HTRF Assay; read-out: IC50

Chain of PDE1B (Q01064 whole entry): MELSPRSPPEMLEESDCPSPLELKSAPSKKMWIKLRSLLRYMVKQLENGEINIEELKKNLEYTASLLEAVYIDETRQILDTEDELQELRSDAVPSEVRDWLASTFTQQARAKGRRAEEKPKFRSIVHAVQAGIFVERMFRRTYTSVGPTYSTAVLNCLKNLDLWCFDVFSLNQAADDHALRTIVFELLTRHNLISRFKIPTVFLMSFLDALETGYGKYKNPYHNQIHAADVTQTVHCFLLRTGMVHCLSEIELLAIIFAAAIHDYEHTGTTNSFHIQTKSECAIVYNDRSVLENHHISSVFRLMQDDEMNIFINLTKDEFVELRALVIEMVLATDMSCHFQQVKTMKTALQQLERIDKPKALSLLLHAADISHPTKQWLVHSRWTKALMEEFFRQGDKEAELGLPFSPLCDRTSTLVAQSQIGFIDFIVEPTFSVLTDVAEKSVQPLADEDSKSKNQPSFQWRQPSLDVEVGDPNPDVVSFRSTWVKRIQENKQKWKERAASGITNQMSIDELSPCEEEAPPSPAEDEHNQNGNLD

IC50 | Compound
< 1 µM | CC(C)c1ncc2c(=O)[nH]c(N3CCCC3c3ccccc3Cl)nn12 (stereo not shown) [Example 132]
< 1 µM | Cn1c(CCc2ccccn2)nn2c(C3CCOCC3)ncc2c1=O [Example 244, 3-Methyl-2-[2-(pyridin-2-yl)ethyl]-7-(tetrahydro-2H-pyran-4-yl)imidazo[5,1-f][1,2,4]triazin-4(3H)-one]
< 1 µM | CCn1c(OC[C@H]2CC[C@@H](C(F)(F)F)CC2)nn2c(C3CCOCC3)ncc2c1=O [Example 252]
< 1 µM | Cc1ccc(CNc2nn3c(C4CCC4)ncc3c(=O)n2C)nc1 [Example 204]
< 1 µM | COc1nn2c(C3CCOCC3)ncc2c(=O)n1CC1CCC1 [Example 273]
< 1 µM | Cn1c(N2CC[C@H](Oc3ccc(F)cn3)C2)nn2c(C3CCOCC3)ncc2c1=O [Example 190]
< 1 µM | Cn1c(OCc2cccc(F)c2)nn2c(C3CCOCC3)ncc2c1=O [Example 40]
< 1 µM | O=c1c2cnc(C3CCOCC3)n2nc(OCC2CCC(F)(F)CC2)n1CC1CCC(F)(F)CC1 [Example 104]
< 1 µM | CC(C)c1ncc2c(=O)n(C)c(NC3CCCc4cc(C#N)ccc43)nn12 (stereo not shown) [Example 148]
< 1 µM | CCn1c(OCc2ccc(OC)cc2)nn2c(C3CCOCC3)ncc2c1=O [Example 54]
< 1 µM | O=c1c2cnc(C3CCOCC3)n2nc(N2CCCC2)n1Cc1ccc(Cl)cc1 [Example 203]
1 to 10 µM | Cc1ccc(OCc2nn3c(C(C)C)ncc3c(=O)n2C)cc1 [Example 225]
< 1 µM | CCn1c(OCCC2CCC(F)(F)CC2)nn2c(C3CCOCC3)ncc2c1=O [Example 93]
< 1 µM | COc1nn2c(C3CCOCC3)ncc2c(=O)n1CC1CC1 [Example 272]
< 1 µM | Cc1ccc(CCCOc2nn3c(C4CCOCC4)ncc3c(=O)n2C)nc1 [Example 42]
< 1 µM | COc1ccc(CCc2nn3c(C4CCOCC4)ncc3c(=O)n2C)cc1 [Example 243, 2-[2-(4-Methoxyphenyl)ethyl]-3-methyl-7-(tetrahydro-2H-pyran-4-yl)imidazo[5,1-f][1,2,4]triazin-4(3H)-one]
< 1 µM | COc1nn2c(C(C)OC)ncc2c(=O)n1CC1CCC(F)(F)CC1 (stereo not shown) [Example 114]
< 1 µM | COc1nn2c(C(C)C)ncc2c(=O)n1CC1CCC(F)(F)CC1 [Example 263]
< 1 µM | CCn1c(OCCc2ccccn2)nn2c(C3CCOCC3)ncc2c1=O [Example 64]
< 1 µM | Cn1c(OCC23CC4CC(CC(C4)C2)C3)nn2c(C3CCOCC3)ncc2c1=O [Example 298]
< 1 µM | CCn1c(OCC2(c3ccc(Cl)cc3)CC2)nn2c(C3CCOCC3)ncc2c1=O [Example 76]
< 1 µM | CCc1ccc(CNc2nn3c(C(C)C)ncc3c(=O)n2C)nc1 [Example 159]

IC50 | Compound
1 to 10 µM | O=c1c2cnc(C3CCOCC3)n2nc(N2CCCC2)n1CC1CC1 [Example 206, 3-(Cyclopropylmethyl)-2-(pyrrolidin-1-yl)-7-(tetrahydro-2H-pyran-4-yl)imidazo[5,1-f][1,2,4]triazin-4(3H)-one]
< 1 µM | COC[C@H]1CC[C@H](COc2nn3c(C4CCOCC4)ncc3c(=O)n2C)CC1 [Example 286]
< 1 µM | CCn1c(OCc2ccc(-c3ccc(C(F)(F)F)cc3)cc2)nn2c(C3CCOCC3)ncc2c1=O [Example 84]
< 1 µM | CCCn1c(OC)nn2c(C3CCOCC3)ncc2c1=O [Example 270]
< 1 µM | CCn1c(N2CCCC2)nn2c(C3CCOCC3)ncc2c1=O [Example 198]
10 to 100 µM | O=c1c2cnc(C3CCOCC3)n2nc(N2CCCC2)n1CC1CCC1 [Example 211]
< 1 µM | CC(C)c1ncc2c(=O)n(C)c(OCc3ccc(F)cc3)nn12 [Example 14]
< 1 µM | O=c1c2cnc(C3CCOCC3)n2nc(OCC2CCC(F)(F)CC2)n1C1CC1 [Example 95]
1 to 10 µM | CC(C)c1ncc2c(=O)n(C)c(N3CCC[C@@H]3c3ccc(C#N)cc3)nn12 [Example 167]
< 1 µM | CCn1c(OCC2CCCC2)nn2c(C3CCOCC3)ncc2c1=O [Example 88]
< 1 µM | COc1nn2c(C3CCOCC3)ncc2c(=O)n1CC1CCCC1 [Example 274]
< 1 µM | CO[C@H]1CC[C@H](Oc2nn3c(C4CCOCC4)ncc3c(=O)n2C(C)C)CC1 [Example 311]
< 1 µM | Cn1c(OC[C@H]2CC[C@H](C(F)(F)F)CC2)nn2c(C3=CCOCC3)ncc2c1=O [Example 328, 7-(3,6-dihydro-2H-pyran-4-yl)-3-methyl-2-{[trans-4-(trifluoromethyl)cyclohexyl]methoxy}-imidazo[5,1-f][1,2,4]triazin-4(3H)-one]
< 1 µM | Cn1c(OCc2ccc(-c3ccccc3)cc2)nn2c(C3CCOCC3)ncc2c1=O [Example 47]
< 1 µM | Cc1ccc(CNc2nn3c(C(C)C)ncc3c(=O)n2C)nc1 [Example 153]
< 1 µM | Cn1c(O[C@H]2CC[C@H](C)CC2)nn2c(C3CCOCC3)ncc2c1=O [Example 254, 3-Methyl-2-[(trans-4-methylcyclohexyl)oxy]-7-(tetrahydro-2H-pyran-4-yl)imidazo[5,1-f][1,2,4]triazin-4(3H)-one]
< 1 µM | CCn1c(OCC2CCC(F)(F)CC2)nn2c(C3CCOCC3)ncc2c1=S [Example 123, 2-[(4,4-Difluorocyclohexyl)methoxy]-3-ethyl-7-(tetrahydro-2H-pyran-4-yl)imidazo[5,1-f][1,2,4]triazin-4(3H)-thione]
< 1 µM | O=c1[nH]c(N2CCCC2c2ccc(Cl)cc2)nn2c(C3CCOCC3)ncc12 (stereo not shown) [Example 129]
1 to 10 µM | COc1nn2c(C3CCOCC3)ncc2c(=O)n1Cc1ccncc1 [Example 281]
1 to 10 µM | CCn1c(OCc2ccc(-c3ccc(F)cc3)cc2)nn2c(C3CCOCC3)ncc2c1=O [Example 80]
< 1 µM | CCn1c(OCCc2cccc(F)c2)nn2c(C3CCOCC3)ncc2c1=O [Example 75]

Continued, compound first:

Compound | IC50
COc1nn2c(C3CCOCC3)ncc2c(=O)n1CCC(F)(F)F [Example 276] | 1 to 10 µM
CC(C)COc1nn2c(C(C)C)ncc2c(=O)n1C [Example 11] | < 1 µM
CCOC[C@H]1CC[C@@H](Oc2nn3c(C4CCOCC4)ncc3c(=O)n2CC)CC1 [Example 321] | < 1 µM
CC(Oc1nn2c(C3CCOCC3)ncc2c(=O)n1C)c1ccc(-c2ccccn2)cc1 (stereo not shown) [Example 52] | < 1 µM
Cn1c(/C=C/c2ccc(F)cc2)nn2c(C3CCOCC3)ncc2c1=O [Example 240, 2-[(E)-2-(4-Fluorophenyl)ethenyl]-3-methyl-7-(tetrahydro-2H-pyran-4-yl)imidazo[5,1-f][1,2,4]triazin-4(3H)-one] | < 1 µM
CCn1c(OCCCOC)nn2c(C3CCOCC3)ncc2c1=O [Example 62] | < 1 µM
O=c1[nH]c(N2CCCC2c2cccc(Cl)c2)nn2c(C3CCOCC3)ncc12 (stereo not shown) [Example 128] | < 1 µM
Cn1c(CN2CCCc3cc(Cl)ccc32)nn2c(C3CCCC3)ncc2c1=O [Example 233] | < 1 µM
CN(C)C(=O)CN1CCCN(c2nn3c(C4CCOCC4)ncc3c(=O)n2C)CC1 [Example 197] | < 1 µM
COCCCN1CCN(c2nn3c(C4CCOCC4)ncc3c(=O)n2C)CC1 [Example 196] | < 1 µM
Cc1ccc([C@@H]2CCCN2c2nn3c(C(C)C)ncc3c(=O)n2C)cn1 [Example 217, 3-Methyl-2-[(2S)-2-(6-methylpyridin-3-yl)pyrrolidin-1-yl]-7-(propan-2-yl)imidazo[5,1-f][1,2,4]triazin-4(3H)-one] | 1 to 10 µM
CCn1c(NCc2ccc(C)nc2)nn2c(C(C)C)ncc2c1=O [Example 176] | < 1 µM
COc1nn2c(C3CCOCC3)ncc2c(=O)n1CCC1CCC(F)(F)CC1 [Example 105] | < 1 µM
CC(C)c1ncc2c(=O)n(C)c(NCc3ccc(Cl)cc3)nn12 [Example 141] | < 1 µM
Cc1ccc(CNc2nn3c(C4CCOCC4)ncc3c(=O)n2C)c(F)c1 [Example 136, 2-[(2-Fluoro-4-methylbenzyl)amino]-3-methyl-7-(tetrahydro-2H-pyran-4-yl)imidazo[5,1-f][1,2,4]triazin-4(3H)-one] | < 1 µM
CC(C)c1ncc2c(=O)n(C)c(NCc3ncccc3F)nn12 [Example 160] | < 1 µM
Cn1c(OCC2CCC(OC(F)(F)F)CC2)nn2c(C3CCOCC3)ncc2c1=O (stereo not shown) [Example 284] | < 1 µM
O=c1c2cnc(C3CCOCC3)n2nc(N2CCCC2)n1CC1CCOCC1 [Example 214] | 10 to 100 µM
CC(C)n1c(N2CCCC2)nn2c(C3CCOCC3)ncc2c1=O [Example 207] | 10 to 100 µM
Cn1c(OCc2cccc(C#N)c2)nn2c(C3CCOCC3)ncc2c1=O [Example 29] | 1 to 10 µM
Cc1cccnc1CNc1nn2c(C(C)C)ncc2c(=O)n1C [Example 157] | < 1 µM
Cn1c(OC[C@H]2CC[C@H](CO)CC2)nn2c(C3CCOCC3)ncc2c1=O [Example 290] | < 1 µM
Cn1c(O[C@H]2CC[C@@H](C(F)(F)F)CC2)nn2c(C3CCOCC3)ncc2c1=O [Example 307] | < 1 µM
Cc1ccc([C@H]2CCCN2c2nn3c(C(C)C)ncc3c(=O)n2C)nc1 [Example 218, 3-Methyl-2-[(2R)-2-(5-methylpyridin-2-yl)pyrrolidin-1-yl]-7-(propan-2-yl)imidazo[5,1-f][1,2,4]triazin-4(3H)-one] | < 1 µM
CCn1c(OCc2ccc(-c3ccc(Cl)cc3)cc2)nn2c(C3CCOCC3)ncc2c1=O [Example 79] | < 1 µM
CC(C)c1ncc2c(=O)n(C)c(NC3CCCc4ccccc43)nn12 (stereo not shown) [Example 138, 3-Methyl-7-(propan-2-yl)-2-(1,2,3,4-tetrahydronaphthalen-1-ylamino)imidazo[5,1-f][1,2,4]triazin-4(3H)-one] | < 1 µM
Cn1c(OCc2ccc(-c3ccc(F)cc3)cc2)nn2c(C3CCOCC3)ncc2c1=O [Example 51] | 1 to 10 µM
CCCn1c(OCC2CCC(F)(F)CC2)nn2c(C3CCOCC3)ncc2c1=O [Example 94] | < 1 µM
CCn1c(N2CCC[C@@H]2c2ccc(Cl)cc2)nn2c(C(C)C)ncc2c1=O [Example 178] | < 1 µM
Cn1c(CCc2ccc(F)cc2)nn2c(C3CCOCC3)ncc2c1=O [Example 241, 2-[2-(4-Fluorophenyl)ethyl]-3-methyl-7-(tetrahydro-2H-pyran-4-yl)imidazo[5,1-f][1,2,4]triazin-4(3H)-one] | < 1 µM
